The record followed here is article PMC9184620, “TAS1553, a small molecule subunit interaction inhibitor of ribonucleotide reductase, exhibits antitumor activity by causing DNA replication stress” (Communications Biology, 2022).

A word on the IC50: it is the concentration that gives 50% inhibition.

SMILES strings stand for the structures.

Test [1] deals with T1, RNR (R1 and R2 recombinant proteins) (Homo sapiens, UniProt P23921).
T1 construct: made in house; host or cells: Escherichia coli
T1 sequence (P23921 1-792): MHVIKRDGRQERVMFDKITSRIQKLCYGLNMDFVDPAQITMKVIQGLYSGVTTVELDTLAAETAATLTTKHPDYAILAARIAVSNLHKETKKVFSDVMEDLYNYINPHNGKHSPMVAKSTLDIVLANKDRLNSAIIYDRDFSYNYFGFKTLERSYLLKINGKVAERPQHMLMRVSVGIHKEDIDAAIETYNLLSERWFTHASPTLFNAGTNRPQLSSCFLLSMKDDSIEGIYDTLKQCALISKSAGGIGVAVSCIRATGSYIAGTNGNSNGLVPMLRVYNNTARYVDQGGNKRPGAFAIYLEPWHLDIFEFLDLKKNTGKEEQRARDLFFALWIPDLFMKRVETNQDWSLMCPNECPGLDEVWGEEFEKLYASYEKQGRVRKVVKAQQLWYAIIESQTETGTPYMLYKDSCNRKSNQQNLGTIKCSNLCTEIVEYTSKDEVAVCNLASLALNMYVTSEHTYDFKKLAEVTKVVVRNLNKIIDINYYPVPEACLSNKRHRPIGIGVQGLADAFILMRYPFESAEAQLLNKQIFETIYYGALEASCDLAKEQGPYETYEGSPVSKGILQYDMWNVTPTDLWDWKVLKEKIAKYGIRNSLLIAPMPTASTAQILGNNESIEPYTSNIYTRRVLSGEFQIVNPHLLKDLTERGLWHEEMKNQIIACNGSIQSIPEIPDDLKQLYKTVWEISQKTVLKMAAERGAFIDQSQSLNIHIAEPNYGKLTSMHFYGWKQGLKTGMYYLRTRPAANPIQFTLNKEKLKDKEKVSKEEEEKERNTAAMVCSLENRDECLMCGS
The test is described as follows: RNR assay (formation of dCDP from CDP). The class given is biochemical. The settings on record: CDP to dCDP; mean ± SD; read-out: Enzyme IC50. The method, then: The binding affinity of TAS1553 to the R1 subunit was investigated using surface plasmon resonance (SPR) binding analysis. […] Next, we evaluated the inhibitory effect of TAS1553 against the enzymatic activity of RNR, consisting of R1 and R2 recombinant proteins. RNR activity was determined by its ability to reduce cytidine diphosphate (CDP) to deoxycytidine diphosphate (dCDP), based on a previous report. […] In addition to the inhibitory effect on RNR, TAS1553 was evaluated in a Eurofins LeadProfilingScreen panel assay including 68 proteins, such as ion channels, transporters, nuclear receptors, and G protein-coupled receptors, to examine its potential adverse activity.
The inhibition of RNR activity by the test compound was evaluated by measuring the formation of dCDP from CDP, as reported previously. The assay was performed for 30 min at 37 °C in a reaction mixture composed of 50 mmol/L HEPES, 4 mmol/L magnesium acetate, 100 mmol/L KCl, 6 mmol/L DTT, 2 mmol/L ATP, 0.24 mmol/L NADPH, 10.0 µmol/L CDP, 0.1 mg/mL BSA, 8.0 µg/mL His-R1, 2.4 µg/mL His-R2, and 1% DMSO with or without test compound. The reaction was discontinued by heat treatment at 95 °C for 5 min. The amount of dCDP after the reaction was quantified by a prominence HPLC system and LabSolutions software (SHIMADZU CORPORATION). Separations were performed at 265 nm in a Shim-pack XR-ODS column of particle size 2.2 μm (100 × 3.0 mm, SHIMADZU GLC Ltd.). Overall, 5 µL of each sample was injected, and chromatography was performed at 40 °C. Mobile A was composed of 10 mmol/L potassium dihydrogenphosphate, 10 mmol/L tetrabutylammonium hydroxide, 0.25% methanol and 8 mmol/L HCl. Mobile B was composed of 50 mmol/L potassium dihydrogenphosphate, 5.6 mmol/L tetrabutylammonium hydroxide, and 30% methanol. The gradient was as follows: 52–60% B for 9 min, 60–99% B for 1 min, 99% B for 5 min, 99–52% B for 1 min, and 52% B for 5 min. The flow rate was 0.5 mL/min. The experiment was performed in triplicates. IC50 values were calculated using the SAS software package.

Another test concerns MV-4-11 xenograft tumors. Nature of the test: Intratumoral dATP and ATP pool in MV-4-11 xenograft tumors after single oral dose. The class given is in vivo, rat. The settings on record: 1 and 2 h post-administration, 50 mg/kg and 200 mg/kg single oral dose. The method, then:
To determine whether TAS1553 achieved RNR inhibition in an in vivo model, we examined the effect of a single dose of orally administered TAS1553 on intratumoral dATP pool, DNA replication stress, and apoptosis in rats that were subcutaneously implanted with a xenograft of MV-4-11 cell line. […] The decline in the intratumoral dATP pool recovered 4 h after the administration of both doses. We also evaluated the DNA replication stress and apoptosis induction in tumors following TAS1553 administration. Consistent with the modulation of the dATP pool, the single administration of TAS1553 (50 mg/kg or more) caused the phosphorylation of Chk1 at Ser345 1 and 2 h post-administration. Furthermore, TAS1553 administration also led to induction in cleaved PARP and cleaved caspase-3 levels, following to Chk1 phosphorylation (Fig. 4d).
Cells were plated, cultured for 1 day, treated with the compound, and harvested. The collected cells were homogenized with 0.42 mol/L perchloric acid, including IS-dATP at 0.6 μmol/L and IS-ATP at 2.4 μmol/L as internal standards for dATP and ATP, respectively. At each time point, xenograft tumors were excised after single dosing of the test compound. The tissues were homogenized with 0.42 mol/L perchloric acid, including IS-dATP at 3 μmol/L as an internal standard for dATP and ATP. […] The aqueous layer collected after vortex and centrifugation was analyzed by LC-MS/MS. […]

Consider `Cc1ccc(F)c([C@@H](C)[C@H](NS(=O)(=O)c2ccc(Cl)cc2C(N)=O)c2n[nH]c(=O)o2)c1C` [TAS1553, 5-chloro-2-{N-[(1S,2R)-2-(6-fluoro-2,3-dimethylphenyl)-1-(5-oxo-4,5-dihydro-1,3,4-oxadiazol-2-yl)propyl]sulfamoyl}benzamide], for which the IC50 in test [1] came out at 0.0542 ± 0.0061 µM. For the same compound, the “effect on intratumoral dATP pool” value with MV-4-11 xenograft tumors was “significant reduction”.
